Patent publication US20260216347A1, “Substituted Imidazo-Based Compounds as Ligand Directed Degraders of IRAK3” (Celgene Corporation, priority 2022, published 2026)

Key:
[1] = biological target: T1, IRAK3 (Homo sapiens, UniProt Q9Y616); assay: IRAK3 biochemical binding assay (LanthaScreen Eu Kinase Binding, TR-FRET)
T1 construct: IRAK Endogenous HTRF Degradation Assay; endogenous in cells
T1 sequence (Q9Y616 1-596): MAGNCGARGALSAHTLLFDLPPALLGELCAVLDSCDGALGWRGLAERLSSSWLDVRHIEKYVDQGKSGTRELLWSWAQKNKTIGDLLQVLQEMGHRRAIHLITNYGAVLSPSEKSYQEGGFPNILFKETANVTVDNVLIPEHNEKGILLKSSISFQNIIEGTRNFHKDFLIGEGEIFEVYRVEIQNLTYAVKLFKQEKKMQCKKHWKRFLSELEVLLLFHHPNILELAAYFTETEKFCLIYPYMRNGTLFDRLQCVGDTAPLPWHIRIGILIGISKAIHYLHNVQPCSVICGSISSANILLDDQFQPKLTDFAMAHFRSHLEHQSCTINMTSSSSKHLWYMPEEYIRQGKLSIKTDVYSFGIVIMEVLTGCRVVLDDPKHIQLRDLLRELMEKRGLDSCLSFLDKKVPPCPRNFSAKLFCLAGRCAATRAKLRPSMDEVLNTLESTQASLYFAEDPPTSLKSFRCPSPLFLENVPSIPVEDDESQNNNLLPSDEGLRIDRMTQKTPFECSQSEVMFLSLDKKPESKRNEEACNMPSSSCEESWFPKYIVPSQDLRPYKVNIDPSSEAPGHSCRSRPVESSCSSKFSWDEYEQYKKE
How it was run: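 TR-FRET tracer-displacement binding with 10 nM IRAK3, 2 nM Eu-anti-GST antibody and 10 nM tracer in 50 mM HEPES pH 7.4, MgCl2, 1 mM EGTA, 0.01% Brij-35. Compounds in 3-fold dilutions, 1 h at room temperature. 665/615 nm ratio gave % inhibition; IC50 and Hill slope from dose-response fit.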

[2] = biological target: T2, IRAK3-ePL (Homo sapiens, UniProt Q9Y616); assay: IRAK3-ePL overexpressing degradation assay (InCELL Hunter luminescence, dose response); assay type: cell-based; details: for IRAK3 ePL degradation Ymin: lowest percentage of target protein remaining following compound treatment; for DC50: read-out: IRAK3 ePL degradation EC50
T2 construct: expressed in transfected cells; host or cells: 293T CRBN OE/GSPT1 G575N KI cells, lentiviral transduction, puromycin selected
Experimental: Example B1. IRAK3-ePL Overexpressing Degradation Assay
Stable cell lines were generated by the following protocol. 3×10^5 Lenti-X 293T cells (Clonetech) were plated in 0.8 mL of media in a 12-well plate and incubated overnight at 37° C./5% CO2. Packaging plasmid (0.4 μg, pMD), envelope plasmid (0.4 μg, pSP), and lentiviral transfer IRAK3-ePL plasmid (0.8 μg, TRAK3 sequence NM_007199.3) were mixed in 0.1 mL of Opti-MEM and incubated for 5 min. Simultaneously, 2.4 μL of Lipofectamine 2000 (Invitrogen) was added to 0.1 mL of Opti-MEM (Gibco) and incubated for 5 min. The plasmid DNA and lipofectamine were combined and the mixture was allowed to incubate for 20 min.DNA:Lipofectamine Opti-MEM mixtures were then added to previously plated cells dropwise and the cells were incubated for ~16 h at 37° C./5% CO2. Following incubation, the media was removed and 1.2 mL of fresh media was added per well. Lenti-X 293T cells were incubated for ~30 h at 37° C./5% CO2. […] Following incubation, media was removed from the Lenti-X 293T wells and passed through a […] filter. Part of the viral supernatant was used to transduce cells and the rest was stored at −80° C. Viruses were then added individually (0.5 mL virus) to each well of the 293T^CRBN OE/GSPT1 G575N KI cells, followed by addition of polybrene (10 mg/mL Millipore) to each well at a final concentration of 5.0 μg/mL. Cells were incubated for ~24 h at 37° C./5% CO2. After aspirating media off plates, cells were washed with DPBS, trypsinized and plated in a 10 cm dish in 15 mL of media and […] puromycin. Following incubation of cells for ~72 h at 37° C./5% CO2, media was aspirated off plates, and cells were washed with DPBS and trypsinized. The cells were plated in a 15 cm dish in 40 mL of media with 1.0 μg/mL Puromycin (Gibco) and incubated for ~72 h at 37° C./5% CO2. Following incubation, media was removed and cells were washed with DPBS and trypsinized. The majority of cells were resuspended in Invitrogen freezing media and stored away (~6-8×10^6 cells/vial).
IRAK3-ePL cellular dose response curve degradation assays were performed by the following protocol. Compounds to be tested were dispensed into a white 384-well tissue-culture treated plate using an acoustic liquid handler. Dilutions were prepared based on a 25 μL assay volume in duplicate 10 point 3-fold serial dilutions starting with a 10 μM dose. Negative control wells were included, which only contain 0.2% DMSO to calculate 100% signal. Positive control wells containing 30 μM Ataluren (luciferase inhibitor) were included to calculate the background signal level. All wells were backfilled to a final DMSO concentration of 0.2% to ensure DMSO uniformity across wells. IRAK3-ePL expressing cells (IRAK3-ePL Lenti-X 293T^CRBN/GSPT1 G575N) were washed, trypsinized, counted, and resuspended in fresh DMEM (Gibco) to give a cell concentration of 200,000 cells/mL. 25 μL of cells (5,000 cells/well) were dispensed into the wells of the 384-well plate prespotted with compounds in the previous step and incubated overnight at 37° C./5% CO2. Following incubation, the 384-well plate was taken out of the incubator and left at room temperature for 30 min. InCELL hunter reagent was prepared according to manufacturer's instructions (EA reagent, lysis buffer, and substrate reagent in a 1:1:4 ratio, Cat #96-0002, DiscoverX), which was added to the 384-well plate 25 μL per well. Following the incubation of the plate for 1 h at room temperature, the luminescence signal was read using a ViewLux plate reader. Data was processed and analyzed in ActivityBase software. In short, the average luminescence values of the positive control wells were subtracted from the rest of the wells for background correction, and all luminescence values were normalized to the DMSO control wells. The average value of the DMSO control wells was set to equal 100% of the relative IRAK3-ePL protein levels. […]

| Compound | IC50 [1] [nM] | IRAK3 ePL degradation Ymin [2] [%] | DC50 [2] [nM] |
| --- | --- | --- | --- |
| O=C1CCC(c2ccc(N3CCN(CCN4CCC(n5cc(Nc6ncc(-c7ccc8c(c7)NC(=O)CO8)n7ccnc67)cn5)CC4)CC3)cc2)C(=O)N1 (centres unmarked) [Compound 15, 3-(4-(4-(2-(4-(4-((5-(3-oxo-3,4-dihydro-2H-benzo[b][1,4]oxazin-6-yl)imidazo[1,2-a]pyrazin-8-yl)amino)-1H-pyrazol-1-yl)piperidin-1-yl)ethyl)piperazin-1-yl)phenyl) piperidine-2,6-dione] | 6.4 | 15 | 0.51 |
| Cc1cccc(-c2cnc(Nc3cnn(C4CCN(CC(=O)N5CCN(c6ccc(C7CCC(=O)NC7=O)cc6)CC5)CC4)c3)c3nccn23)c1 (centres unmarked) [Compound 20, 3-(4-(4-(2-(4-(4-((5-(m-tolyl)imidazo[1,2-a]pyrazin-8-yl)amino)-1H-pyrazol-1-yl)piperidin-1-yl)acetyl)piperazin-1-yl)phenyl)piperidine-2,6-dione] | 2.9 | 16 | 0.77 |
| Cc1cc(-c2cnc(Nc3cnn([C@H]4CCN(CCN5CCN(c6ccc(C7CCC(=O)NC7=O)cc6)C[C@@H]5C)[C@@H](C)C4)c3)c3nccn23)c(F)cc1F (stereo partly drawn) [Compound 34, 3-(4-((S)-4-(2-((2S,4S)-4-(4-((5-(2,4-difluoro-5-methylphenyl)imdazo [1,2-a]pyrazin-8-yl)amino)-1H-pyrazol-1-yl)-2-methylpiperidin-1-yl)ethyl)-3-methylpiperazin-1-yl)phenyl) piperidine-2,6-dione] | 1.5 | 23 | 1.7 |
| CS(=O)(=O)c1ccccc1-c1cnc(Nc2cnn(C3CCN(CCN4CCN(c5ccc(C6CCC(=O)NC6=O)cc5)CC4)CC3)c2)c2nccn12 (centres unmarked) [Compound 83, 3-(4-(4-(2-(4-(4-((5-(2-(methylsulfonyl)phenyl)imidazo[1,2-a]pyrazin-8-yl)amino)-1H-pyrazol-1-yl)piperidin-1-yl)ethyl)piperazin-1-yl)phenyl) piperidine-2,6-dione] | 1600 | 90 |  |

The remaining lines, values ahead:

| IC50 [1] [nM] | IRAK3 ePL degradation Ymin [2] [%] | DC50 [2] [nM] | Compound |
| --- | --- | --- | --- |
| 5.9 | 14 | 1 | Cc1cccc(-c2cnc(Nc3cnn(C4CCN(CCN5CCN(c6ccc(C7CCC(=O)NC7=O)cc6)CC5)CC4)c3)c3nccn23)c1 (centres unmarked) [Compound 5, 3-(4-(4-(2-(4-(4-((5-(m-tolyl)imidazo[1,2-a]pyrazin-8-yl)amino)-1H-pyrazol-1-yl)piperidin-1-yl)ethyl)piperazin-1-yl)phenyl) piperidine-2,6-dione] |
| 36 | 23 | 1.4 | C[C@@H]1CN(c2ccc(C3CCC(=O)NC3=O)cc2)CCN1CCN1CCC(n2cc(Nc3ncc(C4CC4)n4ccnc34)cn2)CC1 (stereo partly drawn) [Compound 32, 3-(4-((R)-4-(2-(4-(4-((5-cyclopropylimidazo[1,2-a]pyrazin-8-yl)amino)-1H-pyrazol-1-yl)piperidin-1-yl)ethyl)-3-methylpiperazin-1-yl)phenyl) piperidine-2,6-dione] |
| 27 | 29 | 5.5 | Cc1ccc(-c2cnc(Nc3cnn(C4CCN(CCN5CCN(c6ccc(C7CCC(=O)NC7=O)cc6)CC5)CC4)c3)c3nccn23)cc1 (centres unmarked) [Compound 78, 3-(4-(4-(2-(4-(4-((5-(p-tolyl)imidazo[1,2-a]pyrazin-8-yl)amino)-1H-pyrazol-1-yl)piperidin-1-yl)ethyl)piperazin-1-yl)phenyl) piperidine-2,6-dione] |
| 260 | 29 | 29 | Cc1ccccc1-c1cnc(Nc2cnn(C3CCN(CCN4CCN(c5ccc(C6CCC(=O)NC6=O)cc5)CC4)CC3)c2)c2nccn12 (centres unmarked) [Compound 79, 3-(4-(4-(2-(4-(4-((5-(o-tolyl)imidazo[1,2-a]pyrazin-8-yl)amino)-1H-pyrazol-1-yl)piperidin-1-yl)ethyl)piperazin-1-yl)phenyl) piperidine-2,6-dione] |
